Experimental data taken from patent publication US10577362B2, “Substituted 2, 4-diamino-quinoline derivatives for use in the treatment of proliferative diseases” (GENOSCIENCE PHARMA, priority 2016, dated 2020).
Counter-ions that a name gives are not always drawn. Like-named read-outs stand apart in the source and are kept apart here.

Columns and labels:
Format in all cases: cell-based, human
[1] = test system: MOLM-14 (acute myeloid leukemia) cell line; test: CellTiter-Glo luminescent cell viability assay, MOLM-14; details: for viability at 4 µM: MOLM-14, compound at 4 μM; for viability at 4 µM / viability at 10 µM: 72 h; for viability at 10 µM: MOLM-14, compound at 10 μM; for EC50: MOLM-14 cell line, 72 h incubation, CellTiter-Glo, read-out: EC50, growth inhibition of MOLM-14
Description: (§1) All cell lines were maintained in medium containing 1% penicillin-streptomycin (Dutscher, P06-07100) and 10% Fetal Bovine Serum (Hyclone Dutscher, RZK35922) cultured at 37° C. with 5% CO2. HepG2 (hepatocellular carcinoma), cell line was cultured in Dulbecco's modified Eagle's medium low glucose (Gibco, 21885025), Huh7 (hepatocellular carcinoma), HCT-116 (colorectal carcinoma), PANC-1 (prancreatic carcinoma) and A375 (malignant melanoma) cell lines were cultured in Dulbecco's modified Eagle's medium (Dutscher, L0103). MOLM-14 (acute myeloid leukemia) cell line was maintained in MEM alpha medium (Gibco, 22561-021). 786-0 (renal adenocarcinoma) cell lines were maintained in RPMI 1640 medium (Dutscher, L0498).
(§2) Cell viability was measured using the CellTiter-Glo® luminescent cell viability assay as described by the manufacturer (Promega, Ref G7571) using an Infinite F200Pro luminometer (Tecan). Briefly, for adherent cells, cells were plated onto 96-well plates (white with clear bottom) in 90 μL of media per well and were allowed to grow overnight before the assay. For cells growing in suspension, cells were plated onto 96-well plates 1 h before the assay.
(§3) Compounds were resuspended in H2O or DMSO and added at different concentrations to each well, and cell cultures were incubated for 72 h. Each diluent (H2O or DMSO) were used as a control, and all compounds were tested in a constant percentage of H2O or DMSO. On the day of the reading, plates are equilibrated 30 min at room temperature before the addition of 100 μL of CellTiter-Glo® and luminescence was measured using an Infinite F200Pro (Tecan). % cell viability were expressed as a percentage of the signal obtained for cell cultures treated with diluent. EC50 values were determined as the dose of compound required to reduce luminescent values to 50% of the signal obtained for cell cultures treated with diluent. The experimental data were analyzed using a computer program, Graphpad Prism v5 (GraphPad Software, Inc. La Jolla, Calif.). All points were at least done in duplicate.

[2] = test system: A375 (malignant melanoma) cell line; test: CellTiter-Glo luminescent cell viability assay, A375; details: for viability at 4 µM: A375, compound at 4 μM; for viability at 4 µM / viability at 10 µM: 72 h; for viability at 10 µM: A375, compound at 10 μM; for EC50: A375 cell line, 72 h incubation, CellTiter-Glo, read-out: EC50, growth inhibition of A375
Description: as §1, §2, §3

[3] = test system: HCT-116 (colorectal carcinoma) cell line; test: CellTiter-Glo luminescent cell viability assay, HCT-116; details: for viability at 4 µM: HCT-116, compound at 4 μM; for viability at 4 µM / viability at 10 µM: 72 h; for viability at 10 µM: HCT-116, compound at 10 μM; for EC50: HCT-116 cell line, 72 h incubation, CellTiter-Glo, read-out: EC50, growth inhibition of HCT-116
Description: as §1, §2, §3

[4] = test system: Huh7 (hepatocellular carcinoma) cell line; test: CellTiter-Glo luminescent cell viability assay, Huh7; details: for viability at 4 µM: Huh7, compound at 4 μM; for viability at 4 µM / viability at 10 µM: 72 h; for viability at 10 µM: Huh7, compound at 10 μM; for EC50: Huh7 cell line, 72 h incubation, CellTiter-Glo, read-out: EC50, growth inhibition of Huh7
Description: as §1, §2, §3

[5] = test system: 786-O (renal adenocarcinoma) cell line; test: CellTiter-Glo luminescent cell viability assay, 786-O; details: for viability at 4 µM / viability at 10 µM: 786-O, 72 h; for viability at 4 µM: compound at 4 μM; for viability at 10 µM: compound at 10 μM; for EC50: 786-O cell line, 72 h incubation, CellTiter-Glo, read-out: EC50, growth inhibition of 786-O
Description: as §1, §2, §3

[6] = test system: HepG2 (hepatocellular carcinoma) cell line; test: CellTiter-Glo luminescent cell viability assay, HepG2; details: for viability at 4 µM / viability at 10 µM: HepG2, HepG, 72 h; for viability at 4 µM: compound at 4 μM; for viability at 10 µM: compound at 10 μM; for EC50: HepG2 cell line, 72 h incubation, CellTiter-Glo, read-out: EC50, growth inhibition of HepG2
Description: as §1, §2, §3

Structure (SMILES) | viability at 4 µM ([1]; Homo sapiens) [%] | viability at 10 µM ([1]; Homo sapiens) [%] | viability at 4 µM ([2]; Homo sapiens, A-375) [%] | viability at 10 µM ([2]; Homo sapiens, A-375) [%] | viability at 4 µM ([3]; Homo sapiens) [%] | viability at 10 µM ([3]; Homo sapiens) [%] | viability at 4 µM ([4]; Homo sapiens, Huh-7) [%] | viability at 10 µM ([4]; Homo sapiens, Huh-7) [%] | viability at 4 µM ([5]; Homo sapiens, 786-0) [%] | viability at 10 µM ([5]; Homo sapiens, 786-0) [%] | viability at 4 µM ([6]; Homo sapiens) [%] | viability at 10 µM ([6]; Homo sapiens) [%] | also measured
CCN(Cc1ccc(Cl)cc1)c1cc(N2CCC(NC(C)(C)C)CC2)c2ccccc2n1 [Compound 214, 2-(N-4-chlorobenzyl-N-ethylamino)-4-[4-(tert-butylamino)-piperidin-1-yl]-quinoline hydrochloride] | 26.8 | 16.4 | 0.4 | 0.4 | 0.2 | 0.3 | 43 | 0.4 | 6.5 | 0.4 | 0.3 | 0.4 | 
N#Cc1c(NCc2ccc(Cl)cc2)nc2ccccc2c1N1CCC(Oc2cccc(F)c2)C1 (centres unmarked) [Compound 3340CN, 2-(4-chlorobenzylamino)-3-cyano-4-[3-(3-fluorophenoxy)pyrrolidin-1-yl]quinoline] | 96 | 97.7 | 95.9 | 90.8 | 101 | 86.3 | 85.6 | 39.9 | 65.7 | 36.4 | 98.9 | 90.8 | 
Cc1cc(OC2CCN(c3c(C#N)c(NCc4ccc(Cl)cc4)nc4ccccc34)CC2)no1 [Compound 2978CN, 2-(4-chlorobenzylamino)-3-cyano-4-{4-[(5-methylisoxazol-3-yl)oxy]piperidin-1-yl}quinoline] | 115 | 77.5 | 93.1 | 86.8 | 88.2 | 50.1 | 87 | 74.2 | 96.9 | 89.3 | 94.5 | 78.1 | 
CC(C)(C)NC1CCN(c2c(C#N)c(Nc3cccc(Nc4nccc(C(F)(F)F)n4)c3)nc3ccccc23)CC1 [Compound 540CN, 2-[3-(4-trifluoromethylpyrimidin-2-ylamino)phenylamino]-3-cyano-4-(4-tert-butylaminopiperidin-1-yl)quinoline] |  |  |  |  |  |  |  |  |  |  |  |  | EC50 ([1]; Homo sapiens): 0.5 to 5 µM; EC50 ([2]; Homo sapiens, A-375): 0.5 to 5 µM; EC50 ([3]; Homo sapiens): 0.5 to 5 µM; EC50 ([4]; Homo sapiens, Huh-7): 0.5 to 5 µM; EC50 ([5]; Homo sapiens, 786-0): 0.5 to 5 µM; EC50 ([6]; Homo sapiens): 5 to 10 µM
Cn1ncnc1Nc1nc2ccccc2c(N2CCC(NC(C)(C)C)CC2)c1C#N [Compound 3270CN, 2-[(1-methyl-1H-1,2,4-triazol-5-yl)amino]-3-cyano-4-[4-(tert-butylamino)piperidin-1-yl]quinoline] | 33.2 | 1 | 49.2 | 31 | 47.4 | 6.3 | 79.6 | 32.3 | 52.6 | 34.7 | 37.5 | 24.1 | EC50 ([1]; Homo sapiens): 0.5 to 5 µM; EC50 ([2]; Homo sapiens, A-375): 0.5 to 5 µM; EC50 ([4]; Homo sapiens, Huh-7): 5 to 10 µM; EC50 ([5]; Homo sapiens, 786-0): 5 to 10 µM; EC50 ([6]; Homo sapiens): 0.5 to 5 µM
Clc1ccc(CNc2cc(N3CCC(Oc4ccncc4)CC3)c3ccccc3n2)cc1 [Compound 2950, 2-(4-chlorobenzylamino)-4-[4-(pyridin-4-yloxy)piperidin-1-yl]quinoline hydrochloride] |  |  |  |  |  |  |  |  |  |  |  |  | EC50 ([1]; Homo sapiens): 0.5 to 5 µM; EC50 ([2]; Homo sapiens, A-375): 0.5 to 5 µM; EC50 ([3]; Homo sapiens): 0.5 to 5 µM; EC50 ([4]; Homo sapiens, Huh-7): 0.5 to 5 µM; EC50 ([5]; Homo sapiens, 786-0): 0.5 to 5 µM; EC50 ([6]; Homo sapiens): 0.5 to 5 µM
OC[C@@H]1CCCN1c1cc(NCc2ccc(Cl)cc2)nc2ccccc12 [Compound 2308, (2S) 2-(4-chlorobenzylamino)-4-[2-(hydroxymethyl)pyrrolidin-1-yl]quinoline, hydrochloride] |  |  |  |  |  |  |  |  |  |  |  |  | EC50 [1]: 0.5 to 5 µM; EC50 [2]: 0.5 to 5 µM; EC50 [3]: 5 to 10 µM; EC50 [4]: 0.5 to 5 µM; EC50 [5]: 5 to 10 µM; EC50 [6]: 0.5 to 5 µM
Cc1cc(Nc2nc3ccccc3c(N3CCC(NC(C)(C)C)CC3)c2C#N)ccc1Nc1nccc(C(F)(F)F)n1 [Compound 534CN, 2-[3-methyl-4-(4-trifluoromethylpyrimidin-2-ylamino)phenylamino]-3-cyano-4-(4-tert-butylaminopiperidin-1-yl)quinoline] | 0.4 | 0.3 | 0.4 | 0.2 | 0.4 | 0.2 | 49.1 | 0.4 | 2.1 | 0.2 | 13 | 0.2 | 
N#Cc1c(NCc2ccc(Cl)cc2)nc2ccccc2c1N1CCC(N2CCOCC2)CC1 [Compound 202CN, 2-(4-chlorobenzylamino)-3-cyano-4-[4-(morpholino)piperidin-1-yl]quinoline] | 112 | 64.2 | 96.9 | 79.2 | 65.8 | 33.5 | 83.6 | 56.1 | 66.3 | 51.9 | 80.2 | 51.1 | 
Cc1nccnc1OC1CCCN(c2c(C#N)c(NCc3ccc(Cl)cc3)nc3ccccc23)C1 (centres unmarked) [Compound 3328CN, 2-(4-chlorobenzylamino)-3-cyano-4-{3-[(3-methylpyrazin-2-yl)oxy]piperidin-1-yl}quinoline] | 105 | 95.4 | 92.7 | 87.3 | 93.2 | 82.3 | 125 | 104 | 93.8 | 85.5 | 98.8 | 90.8 | 
N#Cc1c(NCc2ccc(Cl)cc2)nc2ccccc2c1N1CCC(Oc2ccc(F)cc2)C1 (centres unmarked) [Compound 3338CN, 2-(4-chlorobenzylamino)-3-cyano-4-[3-(4-fluorophenoxy)pyrrolidin-1-yl]quinoline] | 112 | 107 | 94.9 | 93.4 | 94.3 | 87.6 | 96.9 | 101 | 93.3 | 59.4 | 98.8 | 92.2 | 
COc1ccc(OC2CCCN(c3c(C#N)c(NCc4ccc(Cl)cc4)nc4ccccc34)C2)cc1 (centres unmarked) [Compound 3232CN, 2-(4-chlorobenzylamino)-3-cyano-4-[3-(4-methoxyphenoxy)piperidin-1-yl]quinoline] | 91.1 | 99.8 | 104 | 99.4 | 93.9 | 82.9 | 98.7 | 90.3 | 79.9 | 73.5 | 79.9 | 72.3 | 
